{"source": "patent US20110077263A1", "about": "“Methods and Compositions of Toll-Like Receptor (TLR) Agonists” (priority 2009, published 2011)", "key": {"LC [1]": {"test_system": "LC", "details": "Burns et al. 2000; Suzuki et al. 2000; cited from earlier work"}, "[2]": {"test_system": "LC and LC exposed to HPV16 VLP", "assay_type": "cell-based, human", "details": "5 μM 3M-002, 30 μM imiquimod, 30 μM resiquimod, 5 μM 3M-031, 24 h; for expression of surface markers (MHC class I, MHC class II, CD80, CD86) on LC exposed to HPV16 VLP: then treated; for expression of surface markers (MHC class I, MHC class II, CD80, CD86) on LC: LC not exposed to VLP", "description": "For DC, plastic adherent cells were selected by plating 2×10^8 cells in a 175-cm^2 tissue culture flask for 2 h at 37° C. Nonadherent cells were washed away and the remaining cells were cultured for 7 days in complete medium containing 1000 U/ml rGM-CSF (Berlex) and 1000 U/ml rIL-4 (BioSource International), of which 100% was replenished on day 3 and 50% was replenished on day 6. For LC, adherent cells were cultured for 7 days in complete medium containing 1000 U/ml rGM-CSF, 1000 U/ml rIL-4, and 10 ng/ml rTGF-β1 (BioSource International), of which 100% was replenished on day 3, 50% of rGM-CSF and rIL-4 was replenished on day 6, and 100% of rTGF-β1 was replenished on days 3 and 6.\n(§1) DC and LC were harvested and washed twice with PBS. […] The cells were incubated for 1 h at 37° C., mixed occasionally, and finally placed at 37° C. for 24 h in complete medium containing 1000 U/ml rGM-CSF. LC were left untreated or exposed to HPV16 VLP at a concentration of 10 μg/10^6 cells. The cells were incubated for 1 h at 37° C., mixed occasionally, and placed at 37° C. for 24 h in complete medium containing 1000 U/ml rGM-CSF. […] DC and LC were harvested, washed, and analyzed by flow cytometry for the expression and surface markers. Additionally, untreated LC and LC exposed to HPV16 VLP were also analyzed for the expression of TLR7 and TLR8.\nEach population of cells was harvested after the final incubation and analyzed by flow cytometry for the expression of surface markers."}, "LC exposed to HPV16 VLP [3]": {"test_system": "LC exposed to HPV16 VLP", "assay": "Transwell migration assay toward CCL21", "assay_type": "cell-based, human", "details": "then treated, 250 ng/ml CCL21, 3 h", "quoted_text": "LC, HPV16 VLP-exposed LC, or HPV16 VLP-exposed LC treated with each of the imidazoquinolines, using the same concentrations as stated in the imidazoquinoline activation assay, to the upper chambers. The plates were incubated for 3 h at 37° C. Cells that migrated to the lower chamber were counted, and migration was calculated as the ratio of cells that migrated with/without CCL21."}, "TLR7 and/or TLR8": {"test_system": "TLR7 and/or TLR8", "details": "cited from earlier work"}, "[4]": {"test_system": "LC and LC exposed to HPV16 VLP", "assay_type": "cell-based, human", "details": "LC, and LC exposed to HPV16 VLP and then stimulated; for IP-10, MCP-1 and RANTES (CCL5) secretion: data not shown; for IL-12p70, TNF-α, IL-6, IL-8 and MIP-1β concentrations in supernatant: versus negative controls", "description": "as §1\nSupernatants were collected from LC stimulated in the imidazoquinolines activation assay and submitted to the Beckman Center for Immune Monitoring Core at the University of Southern California for cytokine and chemokine analysis. The assays were completed using Human Cytokine LINCOplex Kits (LINCO Research) and the Bio-Plex Suspension Array System (Bio-Rad).\nImidazoquinolines stimulate both an innate and an adaptive immune response. The innate immune response induced by imidazoquinolines drives the adaptive immune response into a Th1 cell-mediated response via the local cytokine and chemokine milieu generated primarily by activated macrophages and DC. Thus, Applicants wanted to determine whether selected imidazoquinolines could stimulate LC exposed to HPV16 VLP to produce a proinflammatory cytokine and chemokine profile similar to the cytokine milieu known to be generated by imidazoquinoline-activated DC. Cytokines and chemokines produced by untreated LC, LC exposed to HPV16 VLP, LC treated with each of the imidazoquinoline compounds, and LC exposed to HPV16 VLP and treated with the imidazoquinoline compounds were evaluated. Supernatant from each treatment was collected and analyzed using a human cytokine LINCOplex assay."}, "DC": {"test_system": "DC", "assay": "Imidazoquinoline activation assay on DC, surface markers by flow cytometry", "assay_type": "cell-based, human"}, "[5]": {"test_system": "LC exposed to HPV16 cVLP with autologous CD8+ T cells", "assay_type": "cell-based, human", "details": "then stimulated, versus untreated LC and LC exposed to cVLP", "quoted_text": "Briefly, LC were left untreated or exposed to 10 μg of HPV16 cVLP for 1 h at 37° C. in PBS. Subsequently, the cells were incubated for 4 h in complete medium supplemented with 1000 U/ml rGM-CSF at 37° C. Then cells were treated with or without each of the imidazoquinolines and incubated for 20 h at 37° C. […] LC were irradiated (25 Gy) and mixed with autologous CD8^+ T cells isolated from PBL by positive selection using a MACS MulitSort CD8^+ isolation kit (Miltenyi Biotec). Day 7 and 14 re-stimulations were done with LC treated as indicated above. For this, the medium was supplemented with IL-2 at 50 U/ml at 48 and 96 h after re-stimulation. After 28 days, cells were pooled and tested for IFN-γ production by ELISPOT as a measurement of HPV16-E7-specific CD8^+ T cell responses. Briefly, 96-well multiscreen hemagglutinin plates (Millipore) were coated with 10 μg/ml anti-human IFN-γ in PBS overnight, washed with PBS/0.5% Tween 20, and blocked for 4 h with complete medium at 37° C./5% CO2. Then, 2.5×10^5 cells/well were incubated in the presence or absence of HPV16-E7 peptide aa 86-93 for 18 h at 37° C. […] Individual spots were counted after staining with 3-amino-9-ethyl-carbazole substrate (Sigma-Aldrich). Spots were counted using the video-imaging KS ELISPOT analysis system (Zeiss)."}, "[6]": {"test_system": "LC exposed to HPV16 L1L2 VLP", "assay_type": "cell-based, human", "details": "co-stimulatory and activation molecules, Th1-promoting cytokines, HPV-specific T cells", "quoted_text": "LC were left untreated or exposed to HPV16 L1L2 VLP for 18 h at 37° C. […] Cell supernatants were analyzed for IL-12 p40/p70 using a Bio-plex suspension bead ELISA (BioRad, Hercules, Calif.)."}, "LC [7]": {"test_system": "LC", "details": "allogenic MLR; Burns et al. 2000; cited from earlier work"}, "LC [8]": {"test_system": "LC", "details": "previous studies; cited from earlier work"}, "LC exposed to HPV16 VLP [9]": {"test_system": "LC exposed to HPV16 VLP", "assay": "CCR7 expression on LC by flow cytometry", "assay_type": "cell-based, human", "details": "then treated"}, "[10]": {"details": "cited from earlier work"}, "[11]": {"test_system": "high-risk HPV-induced vulvar intraepithelium neoplasia (VIN)", "details": "van Seters et al. 2008; cited from earlier work"}, "LC [12]": {"test_system": "LC", "details": "mouse model; Suzuki et al. 2000; cited from earlier work"}, "[13]": {"test_system": "cervical intraepithelial neoplasia (CIN)", "details": "cited from earlier work"}}}
{"smiles": "CCOCc1nc2c(N)nc3ccccc3c2n1CC(C)(C)O", "note": "[resiquimod]", "values": [{"measurement": "phenotypic and functional activation of LC", "setting": "LC [1]", "result": "do not phenotypically but functionally activate LC"}, {"measurement": "expression of surface markers (MHC class I, MHC class II, CD80, CD86) on LC exposed to HPV16 VLP", "setting": "[2]", "result": "significantly induced the up-regulation of the surface markers"}, {"measurement": "expression of surface markers (MHC class I, MHC class II, CD80, CD86) on LC", "setting": "[2]", "result": "significantly induced the up-regulation of surface marker"}, {"measurement": "migration toward CCL21", "setting": "LC exposed to HPV16 VLP [3]", "result": "significantly induced the migration"}, {"measurement": "Agonist receptor(s)", "setting": "TLR7 and/or TLR8", "result": "TLR8/7"}, {"measurement": "IP-10, MCP-1 and RANTES (CCL5) secretion", "setting": "[4]", "result": "highly secreted"}, {"measurement": "IL-12p70, TNF-α, IL-6, IL-8 and MIP-1β concentrations in supernatant", "setting": "[4]", "result": "statistically significantly elevated"}, {"measurement": "expression of surface markers (MHC class I, MHC class II, CD80, CD86) on DC", "setting": "DC", "result": "induced the up-regulation of surface markers"}, {"measurement": "HPV16 E7 86-93 epitope-specific CD8+ T cell response (IFN-γ ELISPOT)", "setting": "[5]", "result": "initiated a statistically significant HPV16 epitope-specific response"}, {"measurement": "activation of HPV-exposed LC", "setting": "[6]", "result": "fully activated HPV treated LC"}, {"measurement": "allostimulatory capacity of treated LC (T cell proliferation)", "setting": "LC [7]", "result": "highly increased the allostimulatory capacity of LC"}, {"measurement": "transcription of cytokine genes (TNF-α, IL-6, IL-12p40 mRNA)", "setting": "LC [8]", "result": "enhanced the transcription of the genes"}, {"measurement": "expression of CCR7", "setting": "LC exposed to HPV16 VLP [9]", "result": "induced the up-regulation of CCR7"}]}
{"smiles": "CCOCc1nc2c(N)nc3ccccc3c2[nH]1", "note": "[CL097]", "values": [{"measurement": "water solubility", "setting": "[10]", "result": "≥ 20", "unit": "mg/mL"}]}
{"smiles": "CC(C)Cn1cnc2c(N)nc3ccccc3c21", "note": "[imiquimod]", "values": [{"measurement": "treatment of high-risk HPV-induced VIN", "setting": "[11]", "result": "successful in treating"}, {"measurement": "expression of surface markers (MHC class I, MHC class II, CD80, CD86) on LC exposed to HPV16 VLP", "setting": "[2]", "result": "moderately increased the expression of surface markers"}, {"measurement": "expression of surface markers (MHC class I, MHC class II, CD80, CD86) on LC", "setting": "[2]", "result": "only a minor up-regulation of surface markers"}, {"measurement": "migration toward CCL21", "setting": "LC exposed to HPV16 VLP [3]", "result": "did not enhance CCL21-directed migration"}, {"measurement": "Agonist receptor(s)", "setting": "TLR7 and/or TLR8", "result": "TLR7"}, {"measurement": "migration of LC", "setting": "LC [12]", "result": "induces the migration of LC"}, {"measurement": "IP-10, MCP-1 and RANTES (CCL5) secretion", "setting": "[4]", "result": "comparable amounts"}, {"measurement": "IL-12p70, TNF-α, IL-6, IL-8 and MIP-1β concentrations in supernatant", "setting": "[4]", "result": "comparable amounts"}, {"measurement": "regression of cervical intraepithelial neoplasia (CIN)", "setting": "[13]; clinical trials", "result": "has not led to regression"}, {"measurement": "toxicity to the cervix", "setting": "[13]; in vivo", "result": "toxic to the cervix"}, {"measurement": "expression of surface markers (MHC class I, MHC class II, CD80, CD86) on DC", "setting": "DC", "result": "induced the up-regulation of surface markers"}, {"measurement": "HPV16 E7 86-93 epitope-specific CD8+ T cell response (IFN-γ ELISPOT)", "setting": "[5]", "result": "did not induce a significant HPV16 epitope-specific immune response"}, {"measurement": "activation of HPV-exposed LC", "setting": "[6]", "result": "did not activate HPV-exposed LC"}, {"measurement": "transcription of cytokine genes (TNF-α, IL-6, IL-12p40 mRNA)", "setting": "LC [8]", "result": "enhanced the transcription of the genes"}, {"measurement": "expression of CCR7", "setting": "LC exposed to HPV16 VLP [9]", "result": "did not induce the expression of CCR7"}]}
{"smiles": "CCCc1nc2c(N)nc3ccccc3c2s1", "note": "[3M-002]", "values": [{"measurement": "Agonist receptor(s)", "setting": "TLR7 and/or TLR8", "result": "TLR8"}]}
